Measurements reported in patent US6995143B2, “Macrolides with antibacterial activity” (Basilea Pharmaceutica AG, priority 2002, dated 2006).
In brackets after ≈: the same amount, converted by molar mass.

Legend:
Type in all cases: cell-based
[1] = test system: Escherichia coli ATCC 25922; assay: MIC, standard microdilution technique
Procedure, shortened: (§1)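 MIC endpoints reflect testing per the 2000 NCCLS M7-A5 standard method for aerobes.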

[2] = test system: Staphylococcus aureus 1086; assay: MIC, standard microdilution technique
Procedure, shortened: as §1

[3] = test system: Staphylococcus aureus 745; assay: MIC, standard microdilution technique
Procedure, shortened: as §1

[4] = test system: Staphylococcus aureus ATCC 29213; assay: MIC, standard microdilution technique
Procedure, shortened: as §1

[5] = test system: Streptococcus pneumoniae 12288; assay: MIC, standard microdilution technique
Procedure, shortened: as §1

[6] = test system: Streptococcus pneumoniae SL199T; assay: MIC, standard microdilution technique
Procedure, shortened: as §1

[7] = test system: Streptococcus pneumoniae l/l; assay: MIC, standard microdilution technique
Procedure, shortened: as §1

[8] = test system: Streptococcus pneumoniae ¼; assay: MIC, standard microdilution technique
Procedure, shortened: as §1

[9] = test system: Haemophilus influenzae 12214; assay: MIC, standard agar dilution method using HTM medium
Procedure, shortened: (§2)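 Susceptibility of H. influenzae isolates is determined by dilution testing conducted to the NCCLS M7-A5 approved standard.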

[10] = test system: Haemophilus influenzae B1501; assay: as above
Procedure, shortened: as §2

[11] = test system: Haemophilus influenzae QK12/87; assay: as above
Procedure, shortened: as §2

[12] = test system: Haemophilus influenzae QK50; assay: as above
Procedure, shortened: as §2

SMILES | minimum inhibitory concentration (MIC), Strain D [1] [µg/mL] | minimum inhibitory concentration (MIC), Strain B [2] | minimum inhibitory concentration (MIC), Strain C [3] [µg/mL] | minimum inhibitory concentration (MIC), Strain A [4] | minimum inhibitory concentration (MIC), Strain H [5] [µg/mL] | minimum inhibitory concentration (MIC), Strain G [6] [µg/mL] | minimum inhibitory concentration (MIC), Strain E [7] | minimum inhibitory concentration (MIC), Strain F [8] | minimum inhibitory concentration (MIC), Strain K [9] [µg/mL] | minimum inhibitory concentration (MIC), Strain M [10] [µg/mL] | minimum inhibitory concentration (MIC), Strain I [11] [µg/mL] | minimum inhibitory concentration (MIC), Strain L [12] [µg/mL]
CC[C@H]1OC(=O)[C@H](C)C(=O)[C@H](C)[C@@H](O[C@@H]2O[C@H](C)C[C@H](N(C)C)[C@H]2O)[C@](C)(OC)C[C@@H](C)C(=O)[C@H](C)[C@H]2[C@@H](SCC(=O)Nc3cccc4cnccc34)C(=O)O[C@@]21C [Example 40] | >32 | 0.125 µg/mL (≈ 0.151 µM) | >32 | 0.125 µg/mL (≈ 0.151 µM) | 4 (≈ 4.83 µM) | 0.5 (≈ 0.604 µM) | <=0.06 μg/ml | 0.125 µg/mL (≈ 0.151 µM) | 4 (≈ 4.83 µM) | 4 (≈ 4.83 µM) | 4 (≈ 4.83 µM) | 4 (≈ 4.83 µM)
CC[C@H]1OC(=O)[C@H](C)C(=O)[C@H](C)[C@@H](O[C@@H]2O[C@H](C)C[C@H](N(C)C)[C@H]2O)[C@](C)(OC)C[C@@H](C)C(=O)[C@H](C)[C@H]2[C@@H](SCCC(=O)Nc3ccc4ncccc4c3)C(=O)O[C@@]21C [Example 41] | >32 | <=0.06 μg/ml | >32 | <=0.06 μg/ml | >32 | 8 (≈ 9.5 µM) | <=0.06 μg/ml | 16 µg/mL (≈ 19 µM) | 8 (≈ 9.5 µM) | 8 (≈ 9.5 µM) | 8 (≈ 9.5 µM) | 16 (≈ 19 µM)
CC[C@H]1OC(=O)[C@H](C)C(=O)[C@H](C)[C@@H](O[C@@H]2O[C@H](C)C[C@H](N(C)C)[C@H]2O)[C@](C)(OC)C[C@@H](C)C(=O)[C@H](C)[C@H]2[C@@H](S(=O)(=O)CCNC(=O)c3ccc4nonc4c3)C(=O)O[C@@]21C [Example 44] | >32 | 0.125 µg/mL (≈ 0.145 µM) | >32 | 0.5 µg/mL (≈ 0.578 µM) | >32 | 16 (≈ 18.5 µM) | <=0.06 μg/ml | <=0.06 μg/ml | 16 (≈ 18.5 µM) | 8 (≈ 9.25 µM) | 16 (≈ 18.5 µM) | 16 (≈ 18.5 µM)
CC[C@H]1OC(=O)[C@H](C)C(=O)[C@H](C)[C@@H](O[C@@H]2O[C@H](C)C[C@H](N(C)C)[C@H]2O)[C@](C)(OC)C[C@@H](C)C(=O)[C@H](C)[C@H]2[C@@H](SCC(=O)c3ccc(OC)cc3OC)C(=O)O[C@@]21C [Example 45] | >32 | 0.25 µg/mL (≈ 0.304 µM) | >32 | 0.25 µg/mL (≈ 0.304 µM) | >32 | 16 (≈ 19.5 µM) | <=0.06 μg/ml | 0.5 µg/mL (≈ 0.608 µM) | 8 (≈ 9.73 µM) | 4 (≈ 4.87 µM) | 8 (≈ 9.73 µM) | 8 (≈ 9.73 µM)
CC[C@H]1OC(=O)[C@H](C)C(=O)[C@H](C)[C@@H](O[C@@H]2O[C@H](C)C[C@H](N(C)C)[C@H]2O)[C@](C)(OC)C[C@@H](C)C(=O)[C@H](C)[C@H]2[C@@H](SCCNc3ncnc4[nH]cnc34)C(=O)O[C@@]21C [Example 51] | 32 (≈ 39.8 µM) | 1 µg/mL (≈ 1.24 µM) | >32 | 1 µg/mL (≈ 1.24 µM) | 8 (≈ 9.94 µM) | 0.5 (≈ 0.621 µM) | <=0.06 μg/ml | 0.125 µg/mL (≈ 0.155 µM) | 4 (≈ 4.97 µM) | 2 (≈ 2.48 µM) | 1 (≈ 1.24 µM) | 1 (≈ 1.24 µM)
CC[C@H]1OC(=O)[C@H](C)C(=O)[C@H](C)[C@@H](O[C@@H]2O[C@H](C)C[C@H](N(C)C)[C@H]2O)[C@](C)(OC)C[C@@H](C)C(=O)[C@H](C)[C@H]2[C@@H](SCCNc3nc(C)nc4ccc(Br)cc34)C(=O)O[C@@]21C [Example 52] | >32 | <=0.06 μg/ml | >32 | 0.125 µg/mL (≈ 0.138 µM) | 8 (≈ 8.81 µM) | 4 (≈ 4.41 µM) | <=0.06 μg/ml | 0.125 µg/mL (≈ 0.138 µM) | 16 (≈ 17.6 µM) | 8 (≈ 8.81 µM) | 8 (≈ 8.81 µM) | 8 (≈ 8.81 µM)
CC[C@H]1OC(=O)[C@H](C)C(=O)[C@H](C)[C@@H](O[C@@H]2O[C@H](C)C[C@H](N(C)C)[C@H]2O)[C@](C)(OC)C[C@@H](C)C(=O)[C@H](C)[C@H]2[C@@H](SCC(=O)c3csc4ccccc34)C(=O)O[C@@]21C [Example 54] | >32 | 0.5 µg/mL (≈ 0.611 µM) | >32 | 1 µg/mL (≈ 1.22 µM) | >32 | >32 | <=0.06 μg/ml | 32 µg/mL (≈ 39.1 µM) | 16 (≈ 19.6 µM) | 8 (≈ 9.78 µM) | 16 (≈ 19.6 µM) | 32 (≈ 39.1 µM)
CC[C@H]1OC(=O)[C@H](C)C(=O)[C@H](C)[C@@H](O[C@@H]2O[C@H](C)C[C@H](N(C)C)[C@H]2O)[C@](C)(OC)C[C@@H](C)C(=O)[C@H](C)[C@H]2[C@@H](SCC(=O)Nc3ccc(C)c(C)c3)C(=O)O[C@@]21C [Example 55] | >32 | 0.125 µg/mL (≈ 0.155 µM) | >32 | 0.25 µg/mL (≈ 0.311 µM) | 2 (≈ 2.48 µM) | 0.25 (≈ 0.311 µM) | <=0.06 μg/ml | <=0.06 μg/ml | 8 (≈ 9.94 µM) | 8 (≈ 9.94 µM) | 8 (≈ 9.94 µM) | 16 (≈ 19.9 µM)
CC[C@H]1OC(=O)[C@@](C)(F)C(=O)[C@H](C)[C@@H](O[C@@H]2O[C@H](C)C[C@H](N(C)C)[C@H]2O)[C@](C)(OC)C[C@@H](C)C(=O)[C@H](C)[C@H]2[C@@H](S(=O)(=O)CCCn3cnc4c(N)ncnc43)C(=O)O[C@@]21C [Example 58] | >32 | 0.5 µg/mL (≈ 0.575 µM) | >32 | 0.5 µg/mL (≈ 0.575 µM) | 8 (≈ 9.21 µM) | 0.5 (≈ 0.575 µM) | <=0.06 μg/ml | <=0.06 μg/ml | 4 (≈ 4.6 µM) | 4 (≈ 4.6 µM) | 4 (≈ 4.6 µM) | 4 (≈ 4.6 µM)
